{
  "source": "paper PMC8086025",
  "about": "“A benzopyran with antiarrhythmic activity is an inhibitor of Kir3.1-containing potassium channels” (The Journal of Biological Chemistry, 2021)",
  "key": {"[1]": {"molecular_target": "α1 adrenergic receptor", "test": "Radioligand binding, [3H]prazosin", "set-up": "species or system rat"}, "[2]": {"molecular_target": "Kir6.1/SUR2B (Homo sapiens, UniProt O60706+Q15842)", "sequence (Q15842 whole entry)": "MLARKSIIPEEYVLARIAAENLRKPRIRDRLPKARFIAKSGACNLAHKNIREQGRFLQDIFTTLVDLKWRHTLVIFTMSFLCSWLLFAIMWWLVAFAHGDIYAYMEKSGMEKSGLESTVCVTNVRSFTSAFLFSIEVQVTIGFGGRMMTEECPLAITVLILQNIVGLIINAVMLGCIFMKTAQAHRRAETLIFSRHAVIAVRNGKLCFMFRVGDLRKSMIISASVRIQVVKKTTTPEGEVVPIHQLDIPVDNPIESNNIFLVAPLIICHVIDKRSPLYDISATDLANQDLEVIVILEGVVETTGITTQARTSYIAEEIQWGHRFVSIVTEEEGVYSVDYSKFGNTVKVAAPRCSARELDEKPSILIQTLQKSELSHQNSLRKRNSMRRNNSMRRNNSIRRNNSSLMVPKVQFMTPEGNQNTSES", "sequence (O60706 1-1549 isoform O60706-2)": "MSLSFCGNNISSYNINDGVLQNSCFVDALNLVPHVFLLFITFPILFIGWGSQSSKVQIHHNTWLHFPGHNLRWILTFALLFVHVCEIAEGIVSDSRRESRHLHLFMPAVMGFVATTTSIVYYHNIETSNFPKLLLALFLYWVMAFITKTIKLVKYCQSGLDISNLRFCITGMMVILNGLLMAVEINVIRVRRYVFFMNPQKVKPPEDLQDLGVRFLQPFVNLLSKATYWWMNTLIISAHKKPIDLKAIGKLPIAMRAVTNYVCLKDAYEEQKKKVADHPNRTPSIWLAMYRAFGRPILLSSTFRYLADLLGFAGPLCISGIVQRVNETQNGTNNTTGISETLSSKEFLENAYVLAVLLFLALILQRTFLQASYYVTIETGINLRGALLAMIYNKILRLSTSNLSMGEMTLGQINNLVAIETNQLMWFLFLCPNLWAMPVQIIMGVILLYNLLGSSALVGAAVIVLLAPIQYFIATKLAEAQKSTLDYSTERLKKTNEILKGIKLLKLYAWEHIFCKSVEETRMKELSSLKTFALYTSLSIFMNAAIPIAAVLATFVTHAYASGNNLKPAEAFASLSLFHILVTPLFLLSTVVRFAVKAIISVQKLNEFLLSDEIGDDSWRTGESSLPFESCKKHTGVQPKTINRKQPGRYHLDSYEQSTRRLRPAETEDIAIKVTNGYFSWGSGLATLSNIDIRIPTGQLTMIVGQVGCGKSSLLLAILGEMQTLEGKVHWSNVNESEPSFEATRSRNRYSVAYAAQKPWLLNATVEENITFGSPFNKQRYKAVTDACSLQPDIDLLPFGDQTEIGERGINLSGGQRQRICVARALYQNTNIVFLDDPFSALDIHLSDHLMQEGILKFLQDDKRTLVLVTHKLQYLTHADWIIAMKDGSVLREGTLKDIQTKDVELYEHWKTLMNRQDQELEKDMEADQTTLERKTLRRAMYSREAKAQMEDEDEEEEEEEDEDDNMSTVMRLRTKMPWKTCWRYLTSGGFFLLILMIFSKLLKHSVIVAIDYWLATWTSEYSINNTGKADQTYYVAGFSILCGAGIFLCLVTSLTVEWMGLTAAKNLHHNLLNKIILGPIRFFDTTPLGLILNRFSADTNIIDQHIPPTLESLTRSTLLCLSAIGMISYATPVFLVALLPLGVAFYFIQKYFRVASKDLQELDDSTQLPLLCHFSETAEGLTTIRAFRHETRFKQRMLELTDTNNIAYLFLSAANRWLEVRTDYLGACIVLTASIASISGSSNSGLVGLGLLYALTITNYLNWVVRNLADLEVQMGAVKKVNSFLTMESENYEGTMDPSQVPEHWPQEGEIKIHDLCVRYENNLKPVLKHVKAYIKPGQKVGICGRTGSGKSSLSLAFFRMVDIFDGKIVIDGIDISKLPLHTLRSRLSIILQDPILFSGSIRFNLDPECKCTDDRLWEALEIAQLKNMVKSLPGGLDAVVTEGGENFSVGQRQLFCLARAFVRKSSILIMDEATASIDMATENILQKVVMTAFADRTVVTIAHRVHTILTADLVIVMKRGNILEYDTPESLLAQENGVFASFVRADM", "test": "Cloned cardiac ion channel electrophysiology, Kir6.1/SUR2B", "assay_type": "cell-based", "description": "page 24: APPENDIX 4- EQUATIONS %Inhibition = (1 - IIntervention/IControl) × 100 Equation 1 - Percentage Inhibition Inhibition of current (or leak-subtracted current) was calculated from steady-state current recorded in the absence (IControl) and presence of test-article (IIntervention). […]"}, "[3]": {"test_system": "IKACh", "test": "In vivo ECG, carbachol-induced heart rate slowing in anesthetized mice", "conditions": "40 μl of 240 μM via jugular vein", "description": "We tested the in vivo effects of BP-G1 versus those of BP-G1(SR) on heart rate in anesthetized adult mice (Fig. 8). ECG was continuously recorded. Panel A is the ECG showing that after carbachol (300 μl of 200 μM) was administered, i.p. (red mark), the heart decelerated, with a visible RR prolongation. About 10 min after carbachol injection, BP-G1 was delivered via the jugular vein (40 μl of 240 μM) (green mark). Within 5 min, there was a reversal of carbachol’s effects on the heart rate. Panel B is a control mouse showing heart rate slowing after carbachol administration (red mark).\nMice were anesthetized (1.5% isofluorane), and a 1.2 French octapolar catheter (Millar) with a drug delivery port was placed transvenously, through the jugular vein, into the right atrium. Continuous ECG was recorded using the Animal Bio Amp and PowerLab 4/35 Advanced Instruments apparatus. […] Saline control at the same volume was performed. Results are averages ±SD."}, "[4]": {"molecular_target": "T1, Kir3.1(E141A)/4 (Homo sapiens, UniProt P48544+P48549, E141A)", "T1 construct": "expressed in transfected cells; host or cells: Xenopus laevis oocytes (cRNA injection)", "T1 sequence (P48549 whole entry E141A)": "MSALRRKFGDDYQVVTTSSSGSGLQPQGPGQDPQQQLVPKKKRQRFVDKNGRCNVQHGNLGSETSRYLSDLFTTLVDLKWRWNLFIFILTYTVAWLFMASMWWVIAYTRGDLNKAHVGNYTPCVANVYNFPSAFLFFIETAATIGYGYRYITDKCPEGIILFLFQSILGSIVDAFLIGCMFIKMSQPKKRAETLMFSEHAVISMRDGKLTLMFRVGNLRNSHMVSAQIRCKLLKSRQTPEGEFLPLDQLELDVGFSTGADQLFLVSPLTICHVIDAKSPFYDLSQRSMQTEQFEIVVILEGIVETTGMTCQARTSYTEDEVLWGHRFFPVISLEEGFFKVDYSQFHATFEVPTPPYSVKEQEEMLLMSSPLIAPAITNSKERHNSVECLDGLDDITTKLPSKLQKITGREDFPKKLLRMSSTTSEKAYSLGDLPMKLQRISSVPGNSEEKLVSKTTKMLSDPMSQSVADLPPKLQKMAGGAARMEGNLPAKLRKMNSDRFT", "T1 sequence (P48544 whole entry)": "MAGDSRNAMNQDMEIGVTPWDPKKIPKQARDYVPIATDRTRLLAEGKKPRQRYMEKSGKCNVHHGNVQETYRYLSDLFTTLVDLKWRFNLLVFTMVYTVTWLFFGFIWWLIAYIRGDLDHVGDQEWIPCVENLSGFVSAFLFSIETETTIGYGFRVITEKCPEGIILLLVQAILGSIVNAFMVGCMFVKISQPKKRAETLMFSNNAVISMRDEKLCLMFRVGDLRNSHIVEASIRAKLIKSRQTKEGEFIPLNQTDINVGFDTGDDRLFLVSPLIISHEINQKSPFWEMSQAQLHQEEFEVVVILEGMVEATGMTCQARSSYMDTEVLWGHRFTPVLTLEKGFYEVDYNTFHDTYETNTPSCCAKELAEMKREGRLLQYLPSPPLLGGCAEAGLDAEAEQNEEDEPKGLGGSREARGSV", "test": "TEVC in Xenopus oocytes, Kir3.1(E141A)/4", "assay_type": "cell-based", "conditions": "1 μM"}, "[5]": {"test_system": "Nav", "test": "Radioligand binding, rat cerebral cortex"}, "[6]": {"molecular_target": "T2, Kir3.1/2 channel (UniProt P48542+P48549)", "T2 sequence (P48549 1-501)": "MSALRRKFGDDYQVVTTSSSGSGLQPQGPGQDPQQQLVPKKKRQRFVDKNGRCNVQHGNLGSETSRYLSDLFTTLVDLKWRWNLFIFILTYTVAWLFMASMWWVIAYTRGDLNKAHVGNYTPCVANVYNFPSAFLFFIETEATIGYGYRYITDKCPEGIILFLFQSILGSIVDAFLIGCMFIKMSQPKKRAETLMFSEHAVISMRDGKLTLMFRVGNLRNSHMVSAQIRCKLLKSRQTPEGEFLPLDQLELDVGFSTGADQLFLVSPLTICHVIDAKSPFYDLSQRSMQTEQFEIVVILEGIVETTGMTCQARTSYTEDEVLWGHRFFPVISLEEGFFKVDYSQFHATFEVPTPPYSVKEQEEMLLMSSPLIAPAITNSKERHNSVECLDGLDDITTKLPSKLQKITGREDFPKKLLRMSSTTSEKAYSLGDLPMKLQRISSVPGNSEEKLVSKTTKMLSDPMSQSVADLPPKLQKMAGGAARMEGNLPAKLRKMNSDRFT", "T2 sequence (P48542 1-425)": "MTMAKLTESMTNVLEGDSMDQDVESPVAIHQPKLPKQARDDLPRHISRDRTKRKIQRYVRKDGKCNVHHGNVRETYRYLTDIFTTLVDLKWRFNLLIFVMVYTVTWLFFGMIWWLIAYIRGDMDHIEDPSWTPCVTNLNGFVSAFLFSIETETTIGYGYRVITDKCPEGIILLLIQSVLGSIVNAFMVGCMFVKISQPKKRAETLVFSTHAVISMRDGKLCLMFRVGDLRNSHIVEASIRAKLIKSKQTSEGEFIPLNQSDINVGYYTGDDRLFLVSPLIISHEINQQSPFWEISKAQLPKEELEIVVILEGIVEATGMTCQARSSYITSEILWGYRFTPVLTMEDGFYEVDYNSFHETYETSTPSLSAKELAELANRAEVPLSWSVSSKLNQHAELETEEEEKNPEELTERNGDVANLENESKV", "test": "Whole-cell patch clamp, HEK293T cells, Kir3.1/2", "assay_type": "cell-based, human Kir3.1, mouse Kir3.2", "set-up": "expressed in transfected cells; host or cells: HEK293T", "conditions": "whole-cell patch-clamp HEK-293 cells; read-out: IC50, inhibition of Kir3.1/2", "description": "For the experiments shown in Figure 1, G and H, whole-cell currents were recorded with an Axopatch 200B amplifier and pCLAMP software (Molecular Devices). HEK293T cells were transiently transfected with 1 μg Kir3.1 together with 1 μg Kir3.2 or 1 μg Kir3.4 DNA, using polyethylenimine (PEI). The cells were maintained in DMEM supplemented with 10% Fetal Bovine Serum and 1% Penicillin/Streptomycin at 37 °C in a 5% CO2 humidified atmosphere and were studied 24 to 48 h after transfection. HEK293T cells were bathed in Low K^+ (LK) solution (135 mM NaCl, 5 mM KCl, 1.2 mM MgCl2, 1.5 mM CaCl2, 8 mM Glucose, 10 mM HEPES with pH 7.4). High K^+ (HK) solution (5 mM NaCl, 135 mM KCl, 1.2 mM MgCl2, 1.5 mM CaCl2, 8 mM Glucose, 10 mM HEPES with pH 7.4) was perfused to establish basal currents. BP-G1 in HK solution was perfused sequentially in a concentration response manner prior to applying 5 mM BaCl2 in HK to identify remaining barium-insensitive leak currents and subtract them from the current records. […] Cells used in the experiments were selected based on eGFP fluorescence. A ramp protocol from −80 mV to +80 mV was used and currents were recorded at −80 mV in the whole-cell mode (using the Strathclyde Electrophysiology Software from the University of Strathclyde, Glasgow). The patch-clamp data were analyzed offline in pClamp (Molecular Devices) and OriginLab software. […]"}},
  "note": "“And” between values parts separate entries of the source, which are not always exact repeats. Identical values can stand only once. Like-named read-outs stand apart in the source and are kept apart here.",
  "data": [
    {"smiles": "Cc1cc(CO)nc2cc3c(cc12)OC(C)(C)[C@H](O)[C@H]3NCCc1ccccc1", "note": "[BP-G1, (3R,4S)-7-(hydroxymethyl)-2,2,9-trimethyl-4-(2-phenylethylamino)-3,4-dihydropyrano[2,3-g]quinolin-3-ol]", "values": [
      {"measurement": "IC50", "setting": "[1]", "result": 13, "unit": "µM"},
      {"measurement": "% Specific Binding at 10 µM", "setting": "[1]", "result": 55.6, "unit": "%"},
      {"measurement": "% Specific Binding at 10 µM", "setting": "[1]; listed as Benzopyran-G1", "result": 55.567, "unit": "%"},
      {"measurement": "Ki", "setting": "[1]; read-out: Ki, α1 (non-selective)", "result": 3.5, "unit": "µM"},
      {"measurement": "IC50", "setting": "[2]", "result": 9.9, "unit": "µM"},
      {"measurement": "time to reversal of carbachol’s effects on the heart rate", "setting": "[3]", "result": "≤ 5", "unit": "min"},
      {"measurement": "RR interval 5 min after compound, given about 10 min after carbachol", "setting": "[3]; anesthetized mice, mean ± SD, N = 3", "result": "155.4 ± 5.5", "unit": "ms"},
      {"measurement": "current block, Kir3.1(E141A)/4", "setting": "[4]", "result": 25, "unit": "%"},
      {"measurement": "% Specific Binding at 10 µM", "setting": "[5]", "result": 65.1, "unit": "%"},
      {"measurement": "% Specific Binding at 10 µM", "setting": "[5]; listed as Benzopyran-G1", "result": 65.100, "unit": "%"},
      {"measurement": "IC50", "setting": "[6]", "result": "0.01 to 0.03 µM and 0.0322 µM"}
    ]}
  ]
}
